# Assay results reported in the NIST ThermoML archive (doi:10.1016/j.fluid.2007.06.010).
# Numbers after ± are expanded uncertainties.
# Assay: refractive index (Na D-line) (dimensionless)
# Details: 298.15 K; 101.33 kPa; Liquid; Standard Abbe refractometry
row,refractive index,Compound
1,1.373 ± 0.0007,CCOC(C)(C)C [2-ethoxy-2-methylpropane]
2,1.389 ± 0.0007,"CC(C)CC(C)(C)C [2,2,4-trimethylpentane]"
3,1.5255 ± 0.0007,c1ccsc1 [thiophene]

row,Compound,refractive index
1,Cc1ccccc1 [toluene],1.494 ± 0.0007
